Data reported in PMC5418314, “First-in-human phase I study of SOR-C13, a TRPV6 calcium channel inhibitor, in patients with advanced solid tumors” (Investigational New Drugs, 2017).
Like-named read-outs stand apart in the source and are kept apart here. Ends that are not written are not given here.

What was measured:
[1] = test system: voltage-gated calcium channels; assay: voltage-gated calcium channel activity; type: biochemical
[2] = Phase I plasma pharmacokinetics; type: in vivo, human; details: plasma LC-MS; for AUC(0-t) / Cmax / Tmax: plasma
Method: Blood samples were taken on Days 1, 3, 8 and 10 of Cycle 1 to assess the pharmacokinetic (PK) profile of SOR-C13 at the various doses used. Plasma samples for the IV 20 min infusion were taken at pre-infusion, 5, 15 min after the start of infusion and post-infusion at 2, 5, 10 and 30 min and 1, 4 h. Plasma samples for SOR-C13 analysis for the 90 min infusion were taken pre-infusion, at 5, 15 and 45 min after the start of infusion, and at 2, 5, 10 and 30 min post-infusion. Since the infusion for the majority of patients, and further studies will be IV 90 min only PK data for this infusion time are presented. Validated liquid chromatography-mass spectrometry analysis provided the plasma concentration/time data.

[3] = Cohort 3: 1.375 mg/kg, N = 3, 90-min IV infusion, Cycle 1 Day 8

Sequence: KEFLHPSKVDLPR [SOR-C13]
- modulation of channel activity [1]: no modulation of channel activity
- time after start of infusion by which steady state was achieved ([2]; 90-min infusion): ≤ 15 min
- Peak plasma concentration, Median ([2]; Cohort 3: 1.375 mg/kg, N = 3, 90-min IV infusion, Cycle 1 Day 1): 252.50 ng/mL
- Peak plasma concentration, Mean (SD) [2, 3]: 251.03 (75.53) ng/mL
- Time to peak plasma concentration, Median [2, 3]: 0.750 h
- Time to peak plasma concentration, Median ([2]; Cohort 4: 2.75 mg/kg, N = 6, 90-min IV infusion, Cycle 1 Day 3): 0.750 h
- Time to peak plasma concentration, Median ([2]; Cohort 5: 4.13 mg/kg, N = 3, 90-min IV infusion, Cycle 1 Day 10): 0.250 h
- Time to peak plasma concentration, Median ([2]; Cohort 6: 6.2 mg/kg, N = 6, 90-min IV infusion, Cycle 1 Day 8): 0.750 h
- half-life ([2]; human, iv, patients, 90-min infusion, read-out: elimination half-life (Thalf), estimated overall): < 5 min
- AUC(0-t) ([2]; human, iv, 1.375 mg/kg, Cohort 3: 1.375 mg/kg, N = 3, 90-min IV infusion, Cycle 1 Day 1, read-out: AUCtau, Mean (SD)): 256 ng·h/mL
- AUC(0-t) ([2]; human, iv, 1.375 mg/kg, Cohort 3: 1.375 mg/kg, N = 3, 90-min IV infusion, Cycle 1 Day 1, read-out: AUCtau, Median): 263 ng·h/mL
- Cmax ([2]; human, iv, 1.375 mg/kg, Cohort 3: 1.375 mg/kg, N = 3, 90-min IV infusion, Cycle 1 Day 1, read-out: Peak plasma concentration, Mean (SD)): 244 ng/mL
- Tmax ([2]; human, iv, 1.375 mg/kg, Cohort 3: 1.375 mg/kg, N = 3, 90-min IV infusion, Cycle 1 Day 1, read-out: Time to peak plasma concentration, Mean (SD)): 31.6 min
- Tmax ([2]; human, iv, 1.375 mg/kg, Cohort 3: 1.375 mg/kg, N = 3, 90-min IV infusion, Cycle 1 Day 1, read-out: Time to peak plasma concentration, Median): 45 min
- AUC(0-t) ([2]; human, iv, 1.375 mg/kg, Cohort 3: 1.375 mg/kg, N = 3, 90-min IV infusion, Cycle 1 Day 3, read-out: AUCtau, Mean (SD)): 148 ng·h/mL
- AUC(0-t) ([2]; human, iv, 1.375 mg/kg, Cohort 3: 1.375 mg/kg, N = 3, 90-min IV infusion, Cycle 1 Day 3, read-out: AUCtau, Median): 168 ng·h/mL
- Cmax ([2]; human, iv, 1.375 mg/kg, Cohort 3: 1.375 mg/kg, N = 3, 90-min IV infusion, Cycle 1 Day 3, read-out: Peak plasma concentration, Mean (SD)): 193 ng/mL
- Cmax ([2]; human, iv, 1.375 mg/kg, Cohort 3: 1.375 mg/kg, N = 3, 90-min IV infusion, Cycle 1 Day 3, read-out: Peak plasma concentration, Median): 160 ng/mL
- Tmax ([2]; human, iv, 1.375 mg/kg, Cohort 3: 1.375 mg/kg, N = 3, 90-min IV infusion, Cycle 1 Day 3, read-out: Time to peak plasma concentration, Mean (SD)): 11.6 min
- Tmax ([2]; human, iv, 1.375 mg/kg, Cohort 3: 1.375 mg/kg, N = 3, 90-min IV infusion, Cycle 1 Day 3, read-out: Time to peak plasma concentration, Median): 15 min
- AUC(0-t) ([2]; human, iv, 1.375 mg/kg, Cohort 3: 1.375 mg/kg, N = 3, 90-min IV infusion, Cycle 1 Day 8, read-out: AUCtau, Mean (SD)): 220 ng·h/mL
- AUC(0-t) ([2]; human, iv, 1.375 mg/kg, Cohort 3: 1.375 mg/kg, N = 3, 90-min IV infusion, Cycle 1 Day 8, read-out: AUCtau, Median): 230 ng·h/mL
- Cmax ([2]; human, iv, 1.375 mg/kg, Cohort 3: 1.375 mg/kg, N = 3, 90-min IV infusion, Cycle 1 Day 8, read-out: Peak plasma concentration, Median): 237 ng/mL
- Tmax ([2]; human, iv, 1.375 mg/kg, Cohort 3: 1.375 mg/kg, N = 3, 90-min IV infusion, Cycle 1 Day 8, read-out: Time to peak plasma concentration, Mean (SD)): 47.2 min
- AUC(0-t) ([2]; human, iv, 1.375 mg/kg, Cohort 3: 1.375 mg/kg, N = 3, 90-min IV infusion, Cycle 1 Day 10, read-out: AUCtau, Mean (SD)): 184 ng·h/mL
- AUC(0-t) ([2]; human, iv, 1.375 mg/kg, Cohort 3: 1.375 mg/kg, N = 3, 90-min IV infusion, Cycle 1 Day 10, read-out: AUCtau, Median): 215 ng·h/mL
- Cmax ([2]; human, iv, 1.375 mg/kg, Cohort 3: 1.375 mg/kg, N = 3, 90-min IV infusion, Cycle 1 Day 10, read-out: Peak plasma concentration, Mean (SD)): 224 ng/mL
- Cmax ([2]; human, iv, 1.375 mg/kg, Cohort 3: 1.375 mg/kg, N = 3, 90-min IV infusion, Cycle 1 Day 10, read-out: Peak plasma concentration, Median): 181 ng/mL
- Tmax ([2]; human, iv, 1.375 mg/kg, Cohort 3: 1.375 mg/kg, N = 3, 90-min IV infusion, Cycle 1 Day 10, read-out: Time to peak plasma concentration, Mean (SD)): 35 min
- AUC(0-t) ([2]; human, iv, 2.75 mg/kg, Cohort 4: 2.75 mg/kg, N = 6, 90-min IV infusion, Cycle 1 Day 1, read-out: AUCtau, Mean (SD)): 435 ng·h/mL
- AUC(0-t) ([2]; human, iv, 2.75 mg/kg, Cohort 4: 2.75 mg/kg, N = 6, 90-min IV infusion, Cycle 1 Day 1, read-out: AUCtau, Median): 103 ng·h/mL
- Cmax ([2]; human, iv, 2.75 mg/kg, Cohort 4: 2.75 mg/kg, N = 6, 90-min IV infusion, Cycle 1 Day 1, read-out: Peak plasma concentration, Mean (SD)): 524 ng/mL
- Cmax ([2]; human, iv, 2.75 mg/kg, Cohort 4: 2.75 mg/kg, N = 6, 90-min IV infusion, Cycle 1 Day 1, read-out: Peak plasma concentration, Median): 194 ng/mL
- Tmax ([2]; human, iv, 2.75 mg/kg, Cohort 4: 2.75 mg/kg, N = 6, 90-min IV infusion, Cycle 1 Day 1, read-out: Time to peak plasma concentration, Mean (SD)): 39.9 min
- Tmax ([2]; human, iv, 2.75 mg/kg, Cohort 4: 2.75 mg/kg, N = 6, 90-min IV infusion, Cycle 1 Day 1, read-out: Time to peak plasma concentration, Median): 45 min
- AUC(0-t) ([2]; human, iv, 2.75 mg/kg, Cohort 4: 2.75 mg/kg, N = 6, 90-min IV infusion, Cycle 1 Day 3, read-out: AUCtau, Mean (SD)): 365 ng·h/mL
- AUC(0-t) ([2]; human, iv, 2.75 mg/kg, Cohort 4: 2.75 mg/kg, N = 6, 90-min IV infusion, Cycle 1 Day 3, read-out: AUCtau, Median): 250 ng·h/mL
- Cmax ([2]; human, iv, 2.75 mg/kg, Cohort 4: 2.75 mg/kg, N = 6, 90-min IV infusion, Cycle 1 Day 3, read-out: Peak plasma concentration, Mean (SD)): 374 ng/mL
- Cmax ([2]; human, iv, 2.75 mg/kg, Cohort 4: 2.75 mg/kg, N = 6, 90-min IV infusion, Cycle 1 Day 3, read-out: Peak plasma concentration, Median): 265 ng/mL
- Tmax ([2]; human, iv, 2.75 mg/kg, Cohort 4: 2.75 mg/kg, N = 6, 90-min IV infusion, Cycle 1 Day 3, read-out: Time to peak plasma concentration, Mean (SD)): 40.3 min
- AUC(0-t) ([2]; human, iv, 2.75 mg/kg, Cohort 4: 2.75 mg/kg, N = 6, 90-min IV infusion, Cycle 1 Day 8, read-out: AUCtau, Mean (SD)): 215 ng·h/mL
- AUC(0-t) ([2]; human, iv, 2.75 mg/kg, Cohort 4: 2.75 mg/kg, N = 6, 90-min IV infusion, Cycle 1 Day 8, read-out: AUCtau, Median): 247 ng·h/mL
- Cmax ([2]; human, iv, 2.75 mg/kg, Cohort 4: 2.75 mg/kg, N = 6, 90-min IV infusion, Cycle 1 Day 8, read-out: Peak plasma concentration, Mean (SD)): 239 ng/mL
- Cmax ([2]; human, iv, 2.75 mg/kg, Cohort 4: 2.75 mg/kg, N = 6, 90-min IV infusion, Cycle 1 Day 8, read-out: Peak plasma concentration, Median): 282 ng/mL
- Tmax ([2]; human, iv, 2.75 mg/kg, Cohort 4: 2.75 mg/kg, N = 6, 90-min IV infusion, Cycle 1 Day 8, read-out: Time to peak plasma concentration, Mean (SD)): 21.6 min
- Tmax ([2]; human, iv, 2.75 mg/kg, Cohort 4: 2.75 mg/kg, N = 6, 90-min IV infusion, Cycle 1 Day 8, read-out: Time to peak plasma concentration, Median): 15 min
- AUC(0-t) ([2]; human, iv, 2.75 mg/kg, Cohort 4: 2.75 mg/kg, N = 6, 90-min IV infusion, Cycle 1 Day 10, read-out: AUCtau, Mean (SD)): 274 ng·h/mL
- AUC(0-t) ([2]; human, iv, 2.75 mg/kg, Cohort 4: 2.75 mg/kg, N = 6, 90-min IV infusion, Cycle 1 Day 10, read-out: AUCtau, Median): 192 ng·h/mL
- Cmax ([2]; human, iv, 2.75 mg/kg, Cohort 4: 2.75 mg/kg, N = 6, 90-min IV infusion, Cycle 1 Day 10, read-out: Peak plasma concentration, Mean (SD)): 290 ng/mL
